Earlier results, collected in patent US20130164335A1, “METHODS AND COMPOSITIONS FOR CELLULAR DRUG RELEASE” (NATIONAL HEALTH RESEARCH INSTITUTES, priority 2011, published 2013).

Conditions: after the first dosage; from a report

In the case of `Cc1cc2c(s1)Nc1ccccc1N=C2N1CCN(C)CC1` [OLZ, Olanzapine], the “time to reach steady-state” value is listed as “one week”.
